Assay results: patent US11926627B1 (priority 2023, dated 2024)
In brackets after ≈: the same amount, converted by molar mass.

What follows are compounds tested on multidrug-resistant (MDR) strains of Mycobacterium tuberculosis (assay: microbe, parasite or virus in culture). Conditions: 192 h, read-out: Antitubercular activity against Mycobacterium tuberculosis MDR (MIC).
Type: cell-based
With `COC(=O)c1c(C(=O)OC)c2ccc3cc(C)ccc3n2c1C(=O)c1ccc(F)cc1` [7-METHYL-QUIN1, Dimethyl 1-(4-fluorobenzoyl)-7-methylpyrrolo[1,2-α]quinoline-2,3-dicarboxylate] the MIC was 8 µg/mL (≈ 19.1 µM). Compound `COC(=O)c1c(C(=O)OC)c2ccc3cc(C)ccc3n2c1C(=O)c1ccc(Br)cc1` [7-METHYL-QUIN2, Dimethyl 1-(4-bromobenzoyl)-7-methylpyrrolo[1,2-α]quinoline-2,3-dicarboxylate] has an MIC of 16 µg/mL (≈ 33.3 µM). In the case of `CCOC(=O)c1cc(C(=O)c2ccc(Cl)cc2)n2c1ccc1cc(C)ccc12` [7-METHYL-QUIN3, Ethyl 1-(4-chlorobenzoyl)-7-methylpyrrolo[1,2-α]quinoline-3-carboxylate], the MIC is reported as 4 µg/mL (≈ 10.2 µM). `COC(=O)c1c(C(=O)OC)c2ccc3cc(C)ccc3n2c1C(=O)c1ccc(Cl)cc1` [7-METHYL-QUIN4, Dimethyl 1-(4-chlorobenzoyl)-7-methylpyrrolo[1,2-α]quinoline-2,3-dicarboxylate] was tested, and the MIC was 4 µg/mL (≈ 9.18 µM).
